Data set [1] addresses T1, Thymidine kinase, cytosolic (Homo sapiens) (UniProt P04183).
T1 sequence (whole entry): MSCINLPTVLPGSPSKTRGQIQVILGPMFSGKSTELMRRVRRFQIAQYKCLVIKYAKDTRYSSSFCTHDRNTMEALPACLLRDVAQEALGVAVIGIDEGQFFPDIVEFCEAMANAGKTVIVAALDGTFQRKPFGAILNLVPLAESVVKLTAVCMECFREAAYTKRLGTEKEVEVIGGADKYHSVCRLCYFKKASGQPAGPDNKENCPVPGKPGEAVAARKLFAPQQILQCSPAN
Nature of the data set: Inhibition of human recombinant TK1 phosphorylation after 15 mins by pyruvate kinase/lactate dehydrogenase coupled assay relative to thymidine.

The next data set has as its system SK-N-MC. Nature of the data set: Drug uptake in human SK-N-MC cells at 111 kBq after 2 hrs by […]. It is filed as ADME, cell-based.

The inhibition is the relative decrease from the control value, in per cent. Turning to `C#CCn1c(=O)c(C)cn([C@H]2C[C@H](O)[C@@H](CO)O2)c1=O`, in data set [1], the inhibition worked out at 86.7%.

With `[3H]C([3H])([3H])c1cn([C@H]2C[C@H](O)[C@@H](CO)O2)c(=O)[nH]c1=O`, the Drug uptake with SK-N-MC was 29 %ID/mg/ml.
